Experimental data published in PubChem BioAssay AID206 (DTP/NCI, 2004).
“And” between values parts separate entries of the source, which are not always exact repeats. Identical values can stand only once. Results filed as inconclusive are left out. Starred links: 1 amine or outer side, 2 acyl side, 3 side chain; linkers in the order of their positions; H or OH if unused. Positions of bridges follow the written chain, without caps; N, C: chain ends. Non-standard residues stand in square brackets, D forms with d. Residues, ends and D or L forms follow the SMILES beside them. Chains are numbered I, II in the order given. Actinocin(9to1) = Cc1c2oc3c(C)ccc(C(=O)[*:1])c3nc-2c(C(=O)[*:2])c(N)c1=O; aThr = C[C@H](O)[C@H](N)C(=O)O; NMeV = CN[C@H](C(=O)O)C(C)C; Sar = CNCC(=O)O

Tested on: nude mice, HT29 intrarenal xenograft, tumor weight T/C
Test: NCI In Vivo Anticancer Drug Screen. Data for tumor model HT29;CX-1 Human Adenocarcinoma (MER+) (intrarenal inoculation) in NU/NU Swiss (nude) mice
Details: endpoint: mean tumor weight change, higher = larger tumour
In short: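 Readout: treated/vehicle-control ratio of the measured endpoint (tumor size or survival) in transplanted-tumor mice.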

[1] = dose: 25.0 mg/kg/injection, schedule: Q04DX004 (sc), vehicle: saline
[2] = dose: 50.0 mg/kg/injection, schedule: Q04DX004 (sc), vehicle: saline
[3] = dose: 6.25 mg/kg/injection, schedule: Q01DX010 (sc), vehicle: saline
[4] = dose: 12.5 mg/kg/injection, schedule: Q01DX010 (sc), vehicle: saline
[5] = dose: 200.0 mg/kg/injection, schedule: Q04DX004 (sc), vehicle: saline with Tween-80

Oc1ccc(SCc2ccc(NCc3ccccc3)cc2)cc1
T/C (dose: 400.0 mg/kg/injection, schedule: Q01DX009 (sc), vehicle: saline with Tween-80): 50 % of control | T/C (dose: 500.0 mg/kg/injection, schedule: Q01DX010 (sc), vehicle: saline with Tween-80): 90 % of control | T/C (dose: 800.0 mg/kg/injection, schedule: Q01DX009 (sc), vehicle: saline with Tween-80): 84 % of control | T/C (dose: 1000.0 mg/kg/injection, schedule: Q01DX010 (sc), vehicle: saline with Tween-80): 84 % of control | T/C (dose: 1600.0 mg/kg/injection, schedule: Q01DX009 (sc), vehicle: saline with Tween-80): 49 % of control | T/C (dose: 2000.0 mg/kg/injection, schedule: Q01DX010 (sc), vehicle: saline with Tween-80): 54 % of control

OCC1OC(n2cnc3cncnc32)C(O)C1O (stereo not drawn)
T/C (dose: 12.5 mg/kg/injection, schedule: Q04DX004 (sc), vehicle: saline): 65 % of control | T/C [1]: 77 % of control | T/C [2]: 66 % of control

Cc1c2c(ccc3ccccc32)c[n+]2ccccc12
T/C [3]: 84 % of control | T/C [4]: 82 % of control

COC(=O)Nc1cn2cc(C(=O)c3cccs3)ccc2n1
T/C (dose: 75.0 mg/kg/injection, schedule: Q04DX004 (sc), vehicle: Klucel (hydroxypropylcellulose) (HPC)): 91 % of control | T/C (dose: 150.0 mg/kg/injection, schedule: Q04DX004 (sc), vehicle: Klucel (hydroxypropylcellulose) (HPC)): 65 % of control | T/C (dose: 300.0 mg/kg/injection, schedule: Q04DX004 (sc), vehicle: Klucel (hydroxypropylcellulose) (HPC)): 50 % of control | T/C (dose: 600.0 mg/kg/injection, schedule: Q04DX004 (sc), vehicle: Klucel (hydroxypropylcellulose) (HPC)): 54 % of control and 76 % of control | T/C (dose: 1200.0 mg/kg/injection, schedule: Q04DX004 (sc), vehicle: Klucel (hydroxypropylcellulose) (HPC)): 67 % of control | T/C (dose: 2400.0 mg/kg/injection, schedule: Q04DX004 (sc), vehicle: Klucel (hydroxypropylcellulose) (HPC)): 36 % of control

NC(=O)c1cn(C2OC(CO)C(O)C2O)c2ncnc(N)c12 (stereo not drawn)
T/C (dose: 1.0 mg/kg/injection, schedule: Q01DX010 (sc), vehicle: saline): 115 % of control | T/C (dose: 2.0 mg/kg/injection, schedule: Q01DX010 (sc), vehicle: saline): 94 % of control

COc1cc(NS(C)(=O)=O)ccc1Nc1c2ccccc2nc2ccccc12
T/C (dose: 0.38 mg/kg/injection, schedule: Q01DX010 (sc), vehicle: other): 33 % of control | T/C (dose: 0.75 mg/kg/injection, schedule: Q01DX010 (sc), vehicle: lactic acid): 43 % of control | T/C (dose: 0.75 mg/kg/injection, schedule: Q01DX010 (sc), vehicle: other): 15 % of control | T/C (dose: 0.78 mg/kg/injection, schedule: Q01DX010 (sc), vehicle: lactic acid): 15 % of control | T/C (dose: 1.5 mg/kg/injection, schedule: Q01DX010 (sc), vehicle: lactic acid): 30 % of control | T/C (dose: 1.5 mg/kg/injection, schedule: Q01DX010 (sc), vehicle: other): 39 % of control | T/C (dose: 3.0 mg/kg/injection, schedule: Q01DX010 (sc), vehicle: other): 99 % of control

O=c1[nH]c(=O)n(C2CC(O)C(CO)O2)cc1I (stereo not drawn)
T/C (dose: 200.0 mg/kg/injection, schedule: Q01DX010 (sc), vehicle: saline with Tween-80): 91 % of control

O=C(Nc1ccccc1C(=O)O)c1cc([N+](=O)[O-])cc([N+](=O)[O-])c1
T/C (dose: 50.0 mg/kg/injection, schedule: Q04DX004 (sc), vehicle: saline with Tween-80): 91 % of control | T/C (dose: 100.0 mg/kg/injection, schedule: Q04DX004 (sc), vehicle: saline with Tween-80): 120 % of control | T/C [5]: 119 % of control

O=C(O)CC(=O)O.[NH-]C1CCCCC1[NH-].[Pt+2] (stereo not drawn)
T/C (dose: 10.0 mg/kg/injection, schedule: Q01DX010 (sc), vehicle: dextrose): 264 % of control | T/C (dose: 15.0 mg/kg/injection, schedule: Q01DX010 (sc), vehicle: dextrose): 73 % of control | T/C (dose: 30.0 mg/kg/injection, schedule: Q01DX010 (sc), vehicle: dextrose): 32 % of control and 43 % of control | T/C (dose: 40.0 mg/kg/injection, schedule: Q01DX010 (sc), vehicle: dextrose): 21 % of control | T/C (dose: 60.0 mg/kg/injection, schedule: Q01DX010 (sc), vehicle: dextrose): 34 % of control and 44 % of control | T/C (dose: 120.0 mg/kg/injection, schedule: Q01DX010 (sc), vehicle: dextrose): 51 % of control

CCN1/C(=C/C=C/C=C/c2sc3ccccc3[n+]2CC)Sc2ccccc21
T/C (dose: 0.38 mg/kg/injection, schedule: Q04DX004 (sc), vehicle: suspension in saline): 77 % of control | T/C (dose: 0.75 mg/kg/injection, schedule: Q04DX004 (sc), vehicle: suspension in saline): 72 % of control | T/C (dose: 1.5 mg/kg/injection, schedule: Q04DX004 (sc), vehicle: suspension in saline): 104 % of control | T/C (dose: 3.0 mg/kg/injection, schedule: Q04DX004 (sc), vehicle: suspension in saline): 89 % of control

CCOC(=O)NC1=C(N2CC2)C(=O)C(NC(=O)OCC)=C(N2CC2)C1=O
T/C (dose: 3.13 mg/kg/injection, schedule: Q04DX004 (sc), vehicle: suspension in saline): 55 % of control

N#C[C@H](OC1OC(COC2OC(CO)C(O)C(O)C2O)C(O)C(O)C1O)c1ccccc1 (stereo partly drawn)
T/C (dose: 450.0 mg/kg/injection, schedule: Q04DX004 (sc), vehicle: suspension in saline): 101 % of control | T/C (dose: 900.0 mg/kg/injection, schedule: Q04DX004 (sc), vehicle: suspension in saline): 67 % of control | T/C (dose: 1800.0 mg/kg/injection, schedule: Q04DX004 (sc), vehicle: suspension in saline): 56 % of control | T/C (dose: 3600.0 mg/kg/injection, schedule: Q04DX004 (sc), vehicle: suspension in saline): 69 % of control

Cc1c2oc3c(C)ccc(C(=O)N[C@@H]4C(=O)N[C@H](C(C)C)C(=O)N5CCC[C@H]5C(=O)N(C)CC(=O)N(C)[C@@H](C(C)C)C(=O)O[C@H]4C)c3nc-2c(C(=O)N[C@@H]2C(=O)N[C@H](C(C)C)C(=O)N3CCC[C@H]3C(=O)N(C)CC(=O)N(C)[C@@H](C(C)C)C(=O)O[C@H]2C)c(N)c1=O (I: [aThr][dV]P[Sar][NMeV] / II: [aThr][dV]P[Sar][NMeV]; ester I:1-I:C, II:1-II:C; linker I:N-II:N via Actinocin(9to1))
T/C (dose: 25.0 micrograms/kg/injection, schedule: Q01DX010 (sc), vehicle: saline): 31 % of control

COc1cccc2c1C(=O)c1c(O)c3c(c(O)c1C2=O)C[C@@](O)(C(C)=O)C[C@@H]3OC1CC(N(C)C)C(O)C(C)O1 (stereo partly drawn)
T/C (dose: 2.5 mg/kg/injection, schedule: Q04DX004 (sc), vehicle: water): 69 % of control | T/C (dose: 4.0 mg/kg/injection, schedule: Q01DX010 (sc), vehicle: saline): 54 % of control | T/C (dose: 5.0 mg/kg/injection, schedule: Q04DX004 (sc), vehicle: water): 45 % of control | T/C (dose: 10.0 mg/kg/injection, schedule: Q04DX004 (sc), vehicle: water): 97 % of control

C1CN(P2(N3CC3)=NP(N3CC3)(N3CC3)=NP(N3CC3)(N3CC3)=N2)CCO1 (stereo not drawn)
T/C [3]: 50 % of control | T/C [4]: 52 % of control | T/C (dose: 25.0 mg/kg/injection, schedule: Q01DX010 (sc), vehicle: saline): 27 % of control

CCC1(O)CC2CN(CCc3c([nH]c4ccccc34)C(C(=O)OC)(c3cc4c(cc3OC)N(C)C3C(O)(C(N)=O)C(O)C5(CC)C=CCN6CCC43C65)C2)C1 (stereo not drawn) (tested in a mixture with another compound)
T/C (dose: 1.5 mg/kg/injection, schedule: Q04DX004 (sc), vehicle: water): 87 % of control | T/C (dose: 12.0 mg/kg/injection, schedule: Q04DX004 (sc), vehicle: water): -25 % of control

CC1(C)N=C(N)N=C(N)N1c1ccc(CCCCc2ccc(S(=O)(=O)F)cc2Cl)c(Cl)c1
T/C [4]: 84 % of control and 100 % of control | T/C (dose: 50.0 mg/kg/injection, schedule: Q01DX010 (sc), vehicle: saline): 98 % of control | T/C (dose: 100.0 mg/kg/injection, schedule: Q01DX010 (sc), vehicle: saline): 81 % of control

C1CCC2[N-]CC3CCCCC3[N-]CC3CCCCC3[N-]CC3CCCCC3[N-]CC2C1.[Cu] (stereo not drawn)
T/C (dose: 6.25 mg/kg/injection, schedule: Q01DX010 (sc), vehicle: Klucel (hydroxypropylcellulose) (HPC)): 35 % of control | T/C (dose: 12.5 mg/kg/injection, schedule: Q01DX010 (sc), vehicle: Klucel (hydroxypropylcellulose) (HPC)): 49 % of control | T/C (dose: 25.0 mg/kg/injection, schedule: Q01DX010 (sc), vehicle: Klucel (hydroxypropylcellulose) (HPC)): 54 % of control

O=C1NC(=O)/C(=C/C=C/c2ccccc2)S1
T/C [5]: 76 % of control | T/C (dose: 400.0 mg/kg/injection, schedule: Q04DX004 (sc), vehicle: saline with Tween-80): 68 % of control | T/C (dose: 800.0 mg/kg/injection, schedule: Q04DX004 (sc), vehicle: saline with Tween-80): 94 % of control | T/C (dose: 1600.0 mg/kg/injection, schedule: Q04DX004 (sc), vehicle: saline with Tween-80): 83 % of control

CCN=C=NCCCN(C)C
T/C [1]: 90 % of control | T/C [2]: 78 % of control | T/C (dose: 100.0 mg/kg/injection, schedule: Q04DX004 (sc), vehicle: saline): 38 % of control
